Consider 1 substance from patent US6428812B1, “Process for producing granules containing angiotensin-converting enzyme inhibiting peptides” (Calpis Co., Ltd., priority 1999, dated 2002).

The assay addresses angiotensin-converting enzyme (ACE) (Homo sapiens, UniProt P12821). The assay is described as follows: ACE inhibitory activity. Type of assay: biochemical. Particulars: ratio IPP versus VPP.

Chain of angiotensin-converting enzyme (ACE) (P12821 30-1306, species assumed): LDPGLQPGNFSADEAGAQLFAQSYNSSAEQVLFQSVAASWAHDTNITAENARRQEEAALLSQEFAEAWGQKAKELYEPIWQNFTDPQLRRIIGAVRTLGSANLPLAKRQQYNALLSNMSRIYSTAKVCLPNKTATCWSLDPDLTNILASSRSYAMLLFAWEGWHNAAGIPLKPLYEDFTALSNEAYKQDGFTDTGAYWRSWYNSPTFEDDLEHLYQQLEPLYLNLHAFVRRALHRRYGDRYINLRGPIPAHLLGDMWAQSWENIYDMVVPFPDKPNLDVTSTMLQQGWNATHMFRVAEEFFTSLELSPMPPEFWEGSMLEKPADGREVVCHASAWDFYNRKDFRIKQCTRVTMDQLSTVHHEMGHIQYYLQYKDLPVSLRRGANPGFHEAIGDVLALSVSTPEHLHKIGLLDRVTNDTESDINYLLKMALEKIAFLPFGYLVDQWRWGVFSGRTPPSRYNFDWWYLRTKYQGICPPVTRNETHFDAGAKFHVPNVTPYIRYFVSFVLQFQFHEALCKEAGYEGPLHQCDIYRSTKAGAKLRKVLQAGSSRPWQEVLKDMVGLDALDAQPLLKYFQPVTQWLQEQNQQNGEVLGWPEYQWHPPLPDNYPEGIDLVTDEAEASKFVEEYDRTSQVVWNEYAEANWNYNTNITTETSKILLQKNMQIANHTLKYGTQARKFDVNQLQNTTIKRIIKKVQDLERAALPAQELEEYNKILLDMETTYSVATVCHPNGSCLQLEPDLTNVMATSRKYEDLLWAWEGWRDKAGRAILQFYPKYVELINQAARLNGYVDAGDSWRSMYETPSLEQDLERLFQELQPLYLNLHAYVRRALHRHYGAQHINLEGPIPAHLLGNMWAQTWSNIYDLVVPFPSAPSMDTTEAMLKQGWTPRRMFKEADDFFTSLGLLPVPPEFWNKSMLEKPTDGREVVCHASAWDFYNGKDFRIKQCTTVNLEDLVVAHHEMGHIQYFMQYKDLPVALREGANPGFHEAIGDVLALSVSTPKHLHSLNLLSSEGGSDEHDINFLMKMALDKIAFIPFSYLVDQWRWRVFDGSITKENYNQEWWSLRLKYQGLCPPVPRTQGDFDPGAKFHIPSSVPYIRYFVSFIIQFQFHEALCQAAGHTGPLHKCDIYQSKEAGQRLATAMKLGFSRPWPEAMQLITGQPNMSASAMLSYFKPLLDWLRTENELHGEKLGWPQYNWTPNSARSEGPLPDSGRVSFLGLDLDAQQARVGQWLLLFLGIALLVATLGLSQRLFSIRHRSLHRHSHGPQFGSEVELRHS

Consider Ile-Pro-Pro [IPP], for which the “ACEI activity of IPP relative to VPP” value is 1.7 times.
